Laboratory results published in patent publication US20160122386A1, “V1A RECEPTOR AGONISTS” (FERRING B.V., priority 2014, published 2016).
Starred links: 1 amine or outer side, 2 acyl side, 3 side chain; linkers in the order of their positions; H or OH if unused. Positions of bridges follow the written chain, without caps; N, C: chain ends. Non-standard residues stand in square brackets, D forms with d. Residues, ends and D or L forms follow the SMILES beside them. Chains are numbered I, II in the order given. *: point of attachment. isoGln = NC(=O)[C@H](CCC(=O)[*:2])N[*:1]; d(εLys) = N[C@H](CCCCN[*:1])C(=O)[*:2]; X1 = N[C@@H](CCC(=O)[*:2])C(=O)[*:1]; εLys = N[C@@H](CCCCN[*:1])C(=O)[*:2]; Dab = NCC[C@H](N)C(=O)O; PhAc = O=C(Cc1ccccc1)*; Ava = NCCCCC(=O)O

Biological target: T1, human V1aR (Homo sapiens, UniProt P37288)
T1 construct: expressed in transfected cells
T1 sequence (P37288 whole entry): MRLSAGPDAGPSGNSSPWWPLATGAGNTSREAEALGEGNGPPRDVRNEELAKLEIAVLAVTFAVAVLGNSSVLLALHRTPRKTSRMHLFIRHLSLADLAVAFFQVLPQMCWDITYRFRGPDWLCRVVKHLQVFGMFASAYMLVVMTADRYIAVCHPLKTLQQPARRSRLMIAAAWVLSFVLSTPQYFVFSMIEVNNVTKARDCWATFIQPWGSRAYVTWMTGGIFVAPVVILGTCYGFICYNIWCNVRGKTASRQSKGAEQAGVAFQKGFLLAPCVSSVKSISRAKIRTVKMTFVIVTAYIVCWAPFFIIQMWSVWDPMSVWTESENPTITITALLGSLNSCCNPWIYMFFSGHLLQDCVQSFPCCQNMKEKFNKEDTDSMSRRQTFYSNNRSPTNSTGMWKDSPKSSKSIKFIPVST
Assay: Agonist activity at vasopressin V1a receptors, cell-based FLIPR calcium assay
Details: for Emax: read-out: Efficacy Avg. (%)
Outline: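 HEK Flp-In cells stably expressing human V1aR were loaded with Calcium 4 dye plus 2.5 mM probenecid for 1 h at 37 °C, then given half-log compound concentrations (final 0.1% DMSO) on FLIPR Tetra.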

| SMILES | EC50 [nM] | Emax [%] |
| --- | --- | --- |
| CC[C@H](C)[C@@H]1NC(=O)[C@H](Cc2ccccc2)NC(=O)[C@@H](N)CSSC[C@@H](C(=O)N2CCC[C@H]2C(=O)N[C@@H](CCNC(=O)[C@@H](N)CCCCNC(=O)CC[C@H](NC(=O)[C@H](CCCNC(=N)N)NC(=O)[C@@H]2CCCN2C(=O)[C@H](CCCNC(=N)N)NC(=O)[C@H](CC(N)=O)NC(=O)[C@H](CCC(N)=O)NC(=O)[C@@H](NC(=O)[C@@H](Cc2ccc(OC)cc2)NC(=O)Cc2ccccc2)[C@@H](C)CC)C(N)=O)C(=O)NCC(N)=O)NC(=O)[C@H](CC(N)=O)NC(=O)[C@H](CCC(N)=O)NC1=O [Compound 36] (I: H-CFIQNCP[Dab]G-NH2 / II: PhAc-[dY](Me)IQNRPR[isoGln][εLys]; disulfide I:1-I:6; amide I:8-II:C) | 1.2 | 46 |
| CC[C@H](C)[C@@H]1NC(=O)[C@H](Cc2ccccc2)NC(=O)[C@@H](N)CSSC[C@@H](C(=O)N2CCC[C@H]2C(=O)N[C@@H](CCNC(=O)[C@@H](N)CCCCNC(=O)CCCCNC(=O)CC[C@H](NC(=O)[C@H](CCCNC(=N)N)NC(=O)[C@@H]2CCCN2C(=O)[C@H](C)NC(=O)[C@H](CC(N)=O)NC(=O)[C@H](CCC(N)=O)NC(=O)[C@H](Cc2ccccc2)NC(=O)[C@@H](Cc2ccc(OC)cc2)NC(=O)Cc2ccccc2)C(N)=O)C(=O)NCC(N)=O)NC(=O)[C@H](CC(N)=O)NC(=O)[C@H](CCC(N)=O)NC1=O [Compound 37] (I: H-CFIQNCP[Dab]G-NH2 / II: PhAc-[dY](Me)FQNAPR[isoGln][Ava][εLys]; disulfide I:1-I:6; amide I:8-II:C) | 1.3 | 44 |
| CC[C@H](C)[C@@H]1NC(=O)[C@H](Cc2ccccc2)NC(=O)[C@@H](N)CSSC[C@@H](C(=O)N2CCC[C@H]2C(=O)N[C@@H](CCNC(=O)[C@@H](N)CCC(=O)NCCCC[C@H](NC(=O)[C@H](CCCNC(=N)N)NC(=O)[C@@H]2CCCN2C(=O)[C@H](C)NC(=O)[C@H](CC(N)=O)NC(=O)[C@H](CCC(N)=O)NC(=O)[C@H](Cc2ccccc2)NC(=O)[C@@H](Cc2ccc(OC)cc2)NC(=O)Cc2ccccc2)C(N)=O)C(=O)NCC(N)=O)NC(=O)[C@H](CC(N)=O)NC(=O)[C@H](CCC(N)=O)NC1=O [Compound 38] (I: H-CFIQNCP[Dab]G-NH2 / II: PhAc-[dY](Me)FQNAPRK-NH2; disulfide I:1-I:6; linker I:8-II:8 via X1) | 1.4 | 46 |
| CC[C@H](C)[C@@H]1NC(=O)[C@H](Cc2ccccc2)NC(=O)[C@@H](N)CSSC[C@@H](C(=O)N2CCC[C@H]2C(=O)N[C@@H](CCNC(=O)[C@H](N)CCCCNC(=O)CC[C@H](NC(=O)[C@H](CCCNC(=N)N)NC(=O)[C@@H]2CCCN2C(=O)[C@H](C)NC(=O)[C@H](CC(N)=O)NC(=O)[C@H](CCC(N)=O)NC(=O)[C@H](Cc2ccccc2)NC(=O)[C@@H](Cc2ccc(OC)cc2)NC(=O)Cc2ccccc2)C(N)=O)C(=O)NCC(N)=O)NC(=O)[C@H](CC(N)=O)NC(=O)[C@H](CCC(N)=O)NC1=O [Compound 39] (I: H-CFIQNCP[Dab]G-NH2 / II: PhAc-[dY](Me)FQNAPR[isoGln][d(εLys)]; disulfide I:1-I:6; amide I:8-II:C) | 1.8 | 48 |
| CC[C@H](C)[C@@H]1NC(=O)[C@H](Cc2ccccc2)NC(=O)[C@@H](N)CSSC[C@@H](C(=O)N2CCC[C@H]2C(=O)N[C@@H](CCNC(=O)[C@@H](N)CCCCNC(=O)[C@H](CCCCN)NC(=O)CC[C@H](NC(=O)[C@H](CCCNC(=N)N)NC(=O)[C@@H]2CCCN2C(=O)[C@H](C)NC(=O)[C@H](CC(N)=O)NC(=O)[C@H](CCC(N)=O)NC(=O)[C@H](Cc2ccccc2)NC(=O)[C@@H](Cc2ccc(OC)cc2)NC(=O)Cc2ccccc2)C(N)=O)C(=O)NCC(N)=O)NC(=O)[C@H](CC(N)=O)NC(=O)[C@H](CCC(N)=O)NC1=O [Compound 41] (I: H-CFIQNCP[Dab]G-NH2 / II: PhAc-[dY](Me)FQNAPR[isoGln]K[εLys]; disulfide I:1-I:6; amide I:8-II:C) | 1.2 | 37 |
